We go through three molecules from patent publication US11987583B2, “Fused triazolo-pyrimidine compounds having useful pharmaceutical application” (PIKSci Inc., priority 2017, dated 2024).

Structures are written as SMILES. Where two headings read alike, the source gives them in different places.

The test system of assay [1] is Acute myelomonocytic leukemia cells ML-2. As to the kind of experiment: Caspase3/7 activity (Caspase-Glo 3/7) in ML-2 cells. Type of assay: cell-based. Particulars: 15 h, 24 h and 41 h after exposure. As to the method: Acute myelomonocytic leukemia cells ML-2 were plated in 96 well plate at a density of 50,000 cells per a well in RPMI medium supplemented with 10% FBS. The cells were exposed to compounds and the early apoptosis marker, Caspase3/7 activity, was measured in the cells at 15 h, 24 h and 41 h after exposure to compounds. The caspase activity was determined using Caspase-Glo® 3/7 Assay (Promega) and according to the protocol provided by the manufacturer.

The test system of another assay is multiple myeloma KMS12E. As to the kind of experiment: Cell viability (Presto Blue), multiple myeloma KMS12E. The format is cell-based. Particulars: Homo sapiens, KMS12E cells, 70 hours exposure, read-out: Plasma cell myeloma, IC50. As to the method:
(§1) Three cancer cell lines, multiple myeloma KMS12E, Non-hodgkin's lymphoma SU-DHL4, T-cell lymphoma Hut-78, and normal human peripheral blood mononuclear cells derived from healthy individual were tested. The cells were plated in 384 well plates in RPMI medium supplemented with 10% fetal bovine serum. Cancer cells were plated at 1000 cells/well and normal cells at 10,000 cells per well in a total volume of 30 uL/well. Immediately after plating, the test compounds were added at […] concentrations: 10 uM-1 uM-0.01 uM-0.001 uM, in duplicate wells for each concentration. The cells were exposed to compounds for 70 hours at 37° C. in humidified incubator with 5% CO2. Cell viability was determined by Presto Blue reagent (Thermo Scientific/Invitrogen).

Assay [2] relates to normal human peripheral blood mononuclear cells. As to the kind of experiment: Cell viability (Presto Blue), normal human PBMCs. The format is cell-based. The settings on record: for IC50: Homo sapiens, PBMC. The procedure: as §1
The test system of another assay is T-cell lymphoma Hut-78. As to the kind of experiment: Cell viability (Presto Blue), T-cell lymphoma Hut-78. The format is cell-based. Particulars: Homo sapiens, HuT78, Hut-78 cells, 70 hours exposure. As to the method:
as §1

For assay [3], the target named is T1, Full length human recombinant PIKFYVE (Homo sapiens, UniProt Q9Y2I7).
T1 construct: Full length human recombinant PIKFYVE expressed in baculovirus expression system as N-terminal GST-fusion protein; GST (N); purchased Carna Biosciences (Kobe, Japan); host or cells: baculovirus expression system
T1 sequence (Q9Y2I7 whole entry, the tested form may be a part): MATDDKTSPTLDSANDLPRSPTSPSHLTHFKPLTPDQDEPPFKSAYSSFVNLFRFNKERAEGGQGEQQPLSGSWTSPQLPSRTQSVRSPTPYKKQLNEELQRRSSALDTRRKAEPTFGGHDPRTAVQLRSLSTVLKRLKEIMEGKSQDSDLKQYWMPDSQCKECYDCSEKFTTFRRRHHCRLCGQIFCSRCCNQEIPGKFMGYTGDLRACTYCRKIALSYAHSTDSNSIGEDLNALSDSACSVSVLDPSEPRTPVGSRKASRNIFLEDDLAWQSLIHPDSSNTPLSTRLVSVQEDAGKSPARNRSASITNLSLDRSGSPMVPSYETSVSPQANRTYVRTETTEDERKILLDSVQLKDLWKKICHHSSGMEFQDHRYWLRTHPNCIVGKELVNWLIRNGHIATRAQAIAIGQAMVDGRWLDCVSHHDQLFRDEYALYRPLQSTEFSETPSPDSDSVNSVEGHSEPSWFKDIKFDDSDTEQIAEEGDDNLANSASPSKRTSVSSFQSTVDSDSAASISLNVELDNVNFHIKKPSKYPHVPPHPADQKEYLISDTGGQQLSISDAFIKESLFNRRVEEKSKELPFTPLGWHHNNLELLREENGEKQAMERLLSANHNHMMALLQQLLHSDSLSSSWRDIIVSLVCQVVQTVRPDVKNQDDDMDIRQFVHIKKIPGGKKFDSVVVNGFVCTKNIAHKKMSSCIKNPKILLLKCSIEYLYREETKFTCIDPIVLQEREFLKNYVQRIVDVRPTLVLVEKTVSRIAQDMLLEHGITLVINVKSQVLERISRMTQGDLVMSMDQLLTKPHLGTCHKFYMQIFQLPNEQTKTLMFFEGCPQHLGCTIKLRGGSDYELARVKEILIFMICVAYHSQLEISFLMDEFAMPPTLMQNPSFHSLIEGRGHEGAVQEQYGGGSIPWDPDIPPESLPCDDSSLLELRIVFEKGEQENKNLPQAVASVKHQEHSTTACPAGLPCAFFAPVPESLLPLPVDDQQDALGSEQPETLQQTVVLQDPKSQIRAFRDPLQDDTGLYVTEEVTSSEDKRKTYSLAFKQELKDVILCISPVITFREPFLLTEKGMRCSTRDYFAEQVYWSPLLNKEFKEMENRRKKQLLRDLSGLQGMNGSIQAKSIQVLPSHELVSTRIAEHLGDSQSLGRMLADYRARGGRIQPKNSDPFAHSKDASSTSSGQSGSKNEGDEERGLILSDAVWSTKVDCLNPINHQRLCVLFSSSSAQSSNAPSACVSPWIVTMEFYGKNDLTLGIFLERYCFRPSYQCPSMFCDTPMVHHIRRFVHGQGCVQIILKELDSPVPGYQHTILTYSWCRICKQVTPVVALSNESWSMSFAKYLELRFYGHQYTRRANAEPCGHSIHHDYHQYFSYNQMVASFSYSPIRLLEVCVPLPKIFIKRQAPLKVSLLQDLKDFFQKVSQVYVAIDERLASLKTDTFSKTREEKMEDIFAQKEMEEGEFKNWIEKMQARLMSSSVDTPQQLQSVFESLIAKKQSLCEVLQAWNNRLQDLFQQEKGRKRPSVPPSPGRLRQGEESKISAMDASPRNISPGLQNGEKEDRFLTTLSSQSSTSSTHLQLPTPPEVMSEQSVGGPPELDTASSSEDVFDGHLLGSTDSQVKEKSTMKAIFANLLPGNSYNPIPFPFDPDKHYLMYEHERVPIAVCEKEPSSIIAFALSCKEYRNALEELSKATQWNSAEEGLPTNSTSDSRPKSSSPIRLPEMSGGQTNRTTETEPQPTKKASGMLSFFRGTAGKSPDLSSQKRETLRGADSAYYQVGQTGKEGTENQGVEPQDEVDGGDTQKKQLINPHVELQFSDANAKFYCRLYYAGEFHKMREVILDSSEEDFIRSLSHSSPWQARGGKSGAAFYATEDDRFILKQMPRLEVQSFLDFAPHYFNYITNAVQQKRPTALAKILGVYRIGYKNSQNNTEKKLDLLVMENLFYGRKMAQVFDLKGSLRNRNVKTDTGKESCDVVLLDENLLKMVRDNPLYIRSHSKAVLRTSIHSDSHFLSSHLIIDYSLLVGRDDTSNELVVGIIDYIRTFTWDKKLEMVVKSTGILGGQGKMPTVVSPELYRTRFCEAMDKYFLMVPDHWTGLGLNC
As to the kind of experiment: Biochemical PIKfyve assay. Particulars: 2 nM enzyme, 10 μM ATP, 3 h room temperature. As to the method:
Full length human recombinant PIKFYVE expressed in baculovirus expression system as N-terminal GST-fusion protein (265 kDa) was obtained from Carna Biosciences (Kobe, Japan). […] The kinase reactions were allowed to proceed for 3 h at room temperature. […] Terminated plates were analyzed on a microfluidic electrophoresis instrument (Caliper LabChip® 3000, Caliper Life Sciences/Perkin Elmer).

The test system of assay [4] is IL-23 secretion by LPS-induced PBMCs. As to the kind of experiment: IL-23 secretion by LPS-stimulated human PBMCs (ELISA). The format is cell-based. The settings on record: 2 h pre-incubation, 100 ng/mL LPS 18 hours. As to the method:
Human PBMCs were plated in 96 well plate at a density of 150,000 cells per a well in RPMI medium supplemented with 10% FBS. The cells were pre-incubated with compounds for 2 h. Following pre-incubation, the cells were stimulated with 100 ng/mL LPS for 18 hours. The secreted IL-23 was determined by ELISA (Human IL-23 Quantikine ELISA Kit, R&D cat #D2300B).
Background: In an ELISA, binding on a coated surface is turned into a signal by an enzyme label.

Assay [5] relates to multiple myeloma KMS12E, Non-hodgkin's lymphoma SU-DHL4, T-cell lymphoma Hut-78. As to the kind of experiment: Cell viability (Presto Blue), panel of cancer cell lines. Type of assay: cell-based. The settings on record: Homo sapiens; range over KMS12E, SU-DHL4, Hut-78; 70 hours; read-out: IC50, viability of the three cancer cell lines.
Experimental: Three cancer cell lines, multiple myeloma KMS12E, Non-hodgkin's lymphoma SU-DHL4, T-cell lymphoma Hut-78, and normal human peripheral blood mononuclear cells derived from healthy individual were tested. The cells were plated in 384 well plates in RPMI medium supplemented with 10% fetal bovine serum. Cancer cells were plated at 1000 cells/well and normal cells at 10,000 cells per well in a total volume of 30 uL/well. Immediately after plating, the test compounds were added at five concentrations: 10 uM-1 uM-0.01 uM-0.001 uM, in duplicate wells for each concentration. The cells were exposed to compounds for 70 hours at 37° C. in humidified incubator with 5% CO2. Cell viability was determined by Presto Blue reagent (Thermo Scientific/Invitrogen).
Where [6] appears, read: viability, Presto Blue, 70 hours exposure, read-out: Normal human PBMCs, IC50.

Consider `Cc1cccc(/C=N/Nc2cc(N3CCOCC3)nc(OCCc3ccccn3)n2)c1` [Apilimod, apilimod], for which, in assay [1], the “Caspase3/7 activation (early apoptosis marker)” value (shortened to “Caspase3/7 activation”) is listed as “induce apoptosis”. For the same molecule, the IC50 (commonly the concentration needed to halve the response being measured) in the assay with multiple myeloma KMS12E was 73 nM; in assay [2] (setting [6]) it was above 10000 nM; in the assay with T-cell lymphoma Hut-78, 27 nM.

Take `Cc1cccc(/C=N/Nc2cc(N3CCOCC3)n3nc(-c4ccncc4)nc3n2)c1` [Compound 1, (E)-4-(5-(2-(3-methylbenzylidene)hydrazinyl)-2-(pyridin-4-yl)-[1,2,4]-triazolo[1,5-a]pyrimidin-7-yl)morpholine]: the half-inhibitory concentration (IC50) in assay [3] is 10 nM; in the assay on multiple myeloma KMS12E, 115 nM; in assay [2] (setting [6]) it was above 10000 nM; with T-cell lymphoma Hut-78 it was 47 nM. In addition, the “secretion of IL-23” value in assay [4] was “completely blocked secretion of IL-23”. Also, the “Caspase3/7 activation” value in assay [1] was “triggered Caspase3/7 activation”. Further, the “selectivity towards cancer cells over normal cells” value in assay [2] (Hut-78 and KMS12E vs normal human PBMCs) is listed as “showed selectivity towards cancer cells over normal cells”.

Turning to `Cc1cccc(/C=N/Nc2cc(N3CCOCC3)n3nc(-c4ccncc4)cc3n2)c1` [APY0201], the half-inhibitory concentration (IC50) was 33 to 46 nM in assay [5]; 74 nM in the assay on multiple myeloma KMS12E; above 10000 nM in assay [2] (70 hours, Example 14 text, read-out: IC50, viability of normal PBMCs); above 10000 nM in assay [2] (setting [6]); 28 nM in the assay with T-cell lymphoma Hut-78. Also, in assay [4], the “secretion of IL-23” value was “completely blocked secretion of IL-23”. Further, the “Caspase3/7 activation” value in assay [1] is “induce apoptosis”.
